Laboratory results as given in US8426365B2, “Method of treating or preventing tissue deterioration, injury or damage due to congestive heart failure” (Regenerx Biopharmaceuticals, Inc., priority 2005, dated 2013).

Experiments:
[1] = tested on: mouse MI-induced heart failure model; experiment: Mouse myocardial infarction (MI) heart failure model; assay type: in vivo, C57 black mice; details: 150 μg/mouse i.p. immediately after MI, then every three days for 4 weeks
Experimental: The procedures used in this study are exactly same as that reported in Nature (432:466-472, 2004). Briefly, C57 black mice, 14 weeks old, were used in this study. Mice were given thymosin β4 (Bachem, Lot #FTHYB40501B) (150 μg/mouse) immediately after myocardial infarction and then every three days for 4 weeks by i.p. injection. The parameters of this study included cardiac morphology and function by echocardiography (echo), invasive cardiac function measurement using Millar catheter, survival rate, and histochemical analysis.

[2] = tested on: normal (BL10) mice; experiment: Grip strength meter, normal (BL10) mice; assay type: in vivo; details: BL10 treated
Experimental: (§1) Four groups of mice were treated with thymosin beta 4. Group 1 was normal mice (BL10) that were given placebo (untreated). Group 2 was normal mice that were treated with thymosin beta 4. Group 3 was dystrophin deficient (mdx) mice treated with placebo and Group 4 was mdx mice treated with thymosin beta 4. Mice were treated with 150 micrograms of thymosin beta 4 in 300 microliters of buffer given intraperitoneally twice a week and placebo mice were given 300 microliters of buffer only. The mice exercised on a treadmill at a speed of 12 meters/minute for 30 minutes twice a week. Functional, behavioral and echocardiographic data were obtained at baseline and after 2 months, 4 months and 6 months of treatment.
(§2) Functional data were non-invasive measurements of skeletal muscle function. The muscle strength of the forelimbs and hindlimbs was assessed using a grip strength meter. The animals were allowed to hold onto the meter platform and then were slowly pulled until they lost their grip. The amount of force needed to free the grip was recorded. Multiple measurements were taken for each mouse at each time point. The same protocol was followed for hindlimb muscle strength. Another functional assessment was the Rotarod test. Here, mice were placed on a rotating bar and kept their balance and position as the bar rotated with increasing speed (10 RPM for 1 minute and then increased 0.2 RPM over the next three minutes). The time until the mouse falls was measured. This test was also repeated multiple times.

[3] = tested on: dystrophin deficient (mdx) mice; experiment: Grip strength meter, dystrophin deficient (mdx) mice; assay type: in vivo; details: Mdx treated
Experimental: as §1, §2

[4] = tested on: normal (BL10) mice; experiment: VersaMax animal activity monitoring, normal (BL10) mice; assay type: in vivo; details: BL10 treated
Experimental: as §1
(§3) Behavioral data was collected using the VersaMax™ animal activity monitoring system. Mice were placed in a monitored box and activity was quantified by different sensors. Data includes horizontal activity, vertical activity and total distance traveled and many other activity parameters were measured. Multiple measurements were made over a 3 day period.

[5] = tested on: dystrophin deficient (mdx) mice; experiment: VersaMax animal activity monitoring, dystrophin deficient (mdx) mice; assay type: in vivo; details: Mdx treated
Experimental: as §1, §3

[6] = tested on: normal (BL10) mice; experiment: Rotarod test, normal (BL10) mice; assay type: in vivo; details: BL10 treated, time until the mouse falls
Experimental: as §1
(§4) Functional data were non-invasive measurements of skeletal muscle function. The muscle strength of the forelimbs and hindlimbs was assessed using a grip strength meter. The animals were allowed to hold onto the meter platform and then were slowly pulled until they lost their grip. The amount of force needed to free the grip was recorded. Multiple measurements were taken for each mouse at each time point. The same protocol was followed for hindlimb muscle strength. Another functional assessment was the Rotarod test. […] The time until the mouse falls was measured. […]

[7] = tested on: dystrophin deficient (mdx) mice; experiment: Rotarod test, dystrophin deficient (mdx) mice; assay type: in vivo; details: Mdx treated, time until the mouse falls
Experimental: as §1, §4

[8] = tested on: heart attack in the mouse model; details: administered immediately following a heart attack; Nature 2004; cited from earlier work
[9] = 2 month, 150 micrograms i.p. twice a week

thymosin beta 4 (SDKPDMAEIEKFDKSKLKKTETQEKNPLPSKETIEQEKQAGES; Thymosin beta-4; UniProt P62328 2-44, looked up) [43 amino acid, 4.9 kDa ubiquitous polypeptide originally isolated from the thymus]
left ventricular end diastolic pressure (LVEDP) [1]: significantly reduced
left ventricular end diastolic volume [1]: significantly attenuated
left ventricular end systolic volume [1]: significantly attenuated
left ventricular systolic pressure (LVSP) [1]: showed a trend in improvement (i.e., a reduction)
rate of change (velocity) in left ventricular pressure-rise with time (dP/dt) [1]: significantly improved
rate of change (velocity) in left ventricular relaxation [1]: showed a trend in affecting (improving)
pulmonary edema (lung weight) ([1]; listed as TB4): significantly attenuated
thickening of left ventricle / heart muscle (heart weight) ([1]; listed as TB4): significantly attenuated
Avg max forelimb strength [2, 9]: 5.73 KGF/kg
Avg max hindlimb strength [2, 9]: 9.18 KGF/kg
Avg max forelimb strength ([2]; Baseline): 5.57 KGF/kg
Avg max hindlimb strength ([2]; Baseline): 7.35 KGF/kg
Avg max forelimb strength [3, 9]: 3.78 KGF/kg
Avg max hindlimb strength [3, 9]: 7.29 KGF/kg
Avg max forelimb strength ([3]; Baseline): 4.46 KGF/kg
Avg max hindlimb strength ([3]; Baseline): 6.29 KGF/kg
Avg horizontal activity [4, 9]: 1287
Avg movement time [4, 9]: 27 s
Avg total distance [4, 9]: 239 cm
Avg vertical activity [4, 9]: 13.1
Avg horizontal activity ([4]; Baseline): 1761
Avg movement time ([4]; Baseline): 41 s
Avg total distance ([4]; Baseline): 375 cm
Avg vertical activity ([4]; Baseline): 28
Avg horizontal activity [5, 9]: 961
Avg movement time [5, 9]: 18.9 s
Avg total distance [5, 9]: 167 cm
Avg vertical activity [5, 9]: 8.2
Avg horizontal activity ([5]; Baseline): 1071
Avg movement time ([5]; Baseline): 25 s
Avg total distance ([5]; Baseline): 209 cm
Avg vertical activity ([5]; Baseline): 12
Rotorod [6, 9]: 191
Rotorod ([6]; Baseline): 214
Rotorod [7, 9]: 147
Rotorod ([7]; Baseline): 211
ejection fraction [8]: able to improve
fractional shortening [8]: able to improve
